Assay results from patent US8871787B2, “Stable crystalline salt of (R)-3-fluorophenyl-3,4,5-trifluorobenzylcarbamic acid 1-azabicyclo [2.2.2]oct-3-yl ester” (Laboratorios Salvat, S.A., priority 2007, dated 2014).

Assay: Hygroscopicity study at controlled relative humidity
Assay type: physicochemical
Set-up: mass gain or mass loss: unit not given here

Q: With `O=C(O)C(O)C(O)C(=O)O.O=C(O[C@H]1CN2CCC1CC2)N(Cc1cc(F)c(F)c(F)c1)c1cccc(F)c1` [D-tartrate salt, D-tartrate salt of (R)-3-fluorophenyl-3,4,5-trifluorobenzylcarbamic acid 1-azabicyclo[2.2.2]oct-3-yl ester] as the compound, how does the “mass gain or mass loss” value (12% RH, 4 h) read?
A: −0.26

Q: And the “mass gain or mass loss” value (12% RH, 8 h)?
A: −0.20

Q: And the “mass gain or mass loss” value (12% RH, 14 h)?
A: −0.30

Q: And the “mass gain or mass loss” value (12% RH, 48 h)?
A: −0.04

Q: And the “mass gain or mass loss” value (12% RH, 96 h)?
A: −0.30

Q: And the “mass gain or mass loss” value (12% RH, 144 h)?
A: −0.33

Q: And the “mass gain or mass loss” value (12% RH, 168 h)?
A: −0.32

Q: And the “mass gain or mass loss” value (12% RH, 192 h)?
A: −0.27

Q: And the “mass gain or mass loss” value (12% RH, 216 h)?
A: −0.29

Q: What about the “mass gain or mass loss” value (12% RH, 240 h) of the same compound?
A: −0.08

Q: What about the “mass gain or mass loss” value (22% RH, 4 h) of the same compound?
A: −0.16

Q: What about the “mass gain or mass loss” value (22% RH, 8 h) of the same compound?
A: −0.26

Q: And the “mass gain or mass loss” value (22% RH, 14 h)?
A: −0.25

Q: What about the “mass gain or mass loss” value (22% RH, 48 h) of the same compound?
A: −0.21

Q: What about the “mass gain or mass loss” value (22% RH, 96 h) of the same compound?
A: −0.26

Q: What about the “mass gain or mass loss” value (22% RH, 144 h) of the same compound?
A: −0.18

Q: What about the “mass gain or mass loss” value (22% RH, 168 h) of the same compound?
A: −0.28

Q: What about the “mass gain or mass loss” value (22% RH, 192 h) of the same compound?
A: −0.21

Q: And the “mass gain or mass loss” value (22% RH, 216 h)?
A: −0.19

Q: And the “mass gain or mass loss” value (22% RH, 240 h)?
A: −0.11

Q: What about the “mass gain or mass loss” value (33% RH, 4 h) of the same compound?
A: −0.25

Q: And the “mass gain or mass loss” value (33% RH, 8 h)?
A: −0.24

Q: What about the “mass gain or mass loss” value (33% RH, 14 h) of the same compound?
A: −0.21

Q: And the “mass gain or mass loss” value (33% RH, 48 h)?
A: −0.19

Q: What about the “mass gain or mass loss” value (33% RH, 96 h) of the same compound?
A: −0.17

Q: What about the “mass gain or mass loss” value (33% RH, 144 h) of the same compound?
A: −0.30

Q: And the “mass gain or mass loss” value (33% RH, 168 h)?
A: −0.39

Q: And the “mass gain or mass loss” value (33% RH, 192 h)?
A: −0.11

Q: And the “mass gain or mass loss” value (33% RH, 216 h)?
A: −0.15

Q: And the “mass gain or mass loss” value (33% RH, 240 h)?
A: −0.18

Q: And the “mass gain or mass loss” value (43% RH, 4 h)?
A: −0.38

Q: And the “mass gain or mass loss” value (43% RH, 8 h)?
A: −0.32

Q: What about the “mass gain or mass loss” value (43% RH, 14 h) of the same compound?
A: −0.21

Q: And the “mass gain or mass loss” value (43% RH, 48 h)?
A: −0.25

Q: And the “mass gain or mass loss” value (43% RH, 96 h)?
A: −0.30

Q: What about the “mass gain or mass loss” value (43% RH, 144 h) of the same compound?
A: −0.40

Q: And the “mass gain or mass loss” value (43% RH, 168 h)?
A: −0.34

Q: And the “mass gain or mass loss” value (43% RH, 192 h)?
A: −0.19

Q: And the “mass gain or mass loss” value (43% RH, 216 h)?
A: −0.25

Q: And the “mass gain or mass loss” value (43% RH, 240 h)?
A: −0.18

Q: And the “mass gain or mass loss” value (53% RH, 4 h)?
A: −0.19

Q: What about the “mass gain or mass loss” value (53% RH, 8 h) of the same compound?
A: −0.21

Q: What about the “mass gain or mass loss” value (53% RH, 14 h) of the same compound?
A: −0.16

Q: And the “mass gain or mass loss” value (53% RH, 48 h)?
A: −0.17

Q: What about the “mass gain or mass loss” value (53% RH, 96 h) of the same compound?
A: −0.19

Q: And the “mass gain or mass loss” value (53% RH, 144 h)?
A: −0.17

Q: What about the “mass gain or mass loss” value (53% RH, 168 h) of the same compound?
A: −0.16

Q: What about the “mass gain or mass loss” value (53% RH, 192 h) of the same compound?
A: −0.20

Q: What about the “mass gain or mass loss” value (53% RH, 216 h) of the same compound?
A: −0.14

Q: What about the “mass gain or mass loss” value (53% RH, 240 h) of the same compound?
A: 0.00

Q: And the “mass gain or mass loss” value (64% RH, 4 h)?
A: −0.08

Q: And the “mass gain or mass loss” value (64% RH, 8 h)?
A: −0.07

Q: And the “mass gain or mass loss” value (64% RH, 14 h)?
A: −0.07

Q: What about the “mass gain or mass loss” value (64% RH, 48 h) of the same compound?
A: 0.02

Q: And the “mass gain or mass loss” value (64% RH, 96 h)?
A: −0.07

Q: What about the “mass gain or mass loss” value (64% RH, 144 h) of the same compound?
A: 0.15

Q: And the “mass gain or mass loss” value (64% RH, 168 h)?
A: 0.15

Q: What about the “mass gain or mass loss” value (64% RH, 192 h) of the same compound?
A: 0.20

Q: And the “mass gain or mass loss” value (64% RH, 216 h)?
A: 0.25

Q: And the “mass gain or mass loss” value (64% RH, 240 h)?
A: 0.59

Q: What about the “mass gain or mass loss” value (75% RH, 4 h) of the same compound?
A: −0.08

Q: What about the “mass gain or mass loss” value (75% RH, 8 h) of the same compound?
A: 0.02

Q: And the “mass gain or mass loss” value (75% RH, 14 h)?
A: 0.01

Q: And the “mass gain or mass loss” value (75% RH, 48 h)?
A: 0.06

Q: What about the “mass gain or mass loss” value (75% RH, 96 h) of the same compound?
A: −0.06

Q: And the “mass gain or mass loss” value (75% RH, 144 h)?
A: −0.08

Q: What about the “mass gain or mass loss” value (75% RH, 168 h) of the same compound?
A: −0.05

Q: And the “mass gain or mass loss” value (75% RH, 192 h)?
A: 0.00

Q: What about the “mass gain or mass loss” value (75% RH, 216 h) of the same compound?
A: 0.01

Q: What about the “mass gain or mass loss” value (75% RH, 240 h) of the same compound?
A: 0.29

Q: What about the “mass gain or mass loss” value (85% RH, 4 h) of the same compound?
A: 0.16

Q: What about the “mass gain or mass loss” value (85% RH, 8 h) of the same compound?
A: 0.13

Q: And the “mass gain or mass loss” value (85% RH, 14 h)?
A: 0.22

Q: And the “mass gain or mass loss” value (85% RH, 48 h)?
A: 0.26

Q: What about the “mass gain or mass loss” value (85% RH, 96 h) of the same compound?
A: 0.07

Q: What about the “mass gain or mass loss” value (85% RH, 144 h) of the same compound?
A: 0.24

Q: What about the “mass gain or mass loss” value (85% RH, 168 h) of the same compound?
A: 0.18

Q: And the “mass gain or mass loss” value (85% RH, 192 h)?
A: 0.15

Q: And the “mass gain or mass loss” value (85% RH, 216 h)?
A: 0.23

Q: And the “mass gain or mass loss” value (85% RH, 240 h)?
A: 0.59

Q: What about the “mass gain or mass loss (in words)” value (93% RH or below) of the same compound?
A: No significant mass gain or mass loss

Q: And the “mass gain or mass loss” value (93% RH, 4 h)?
A: 0.16

Q: And the “mass gain or mass loss” value (93% RH, 8 h)?
A: 0.03

Q: And the “mass gain or mass loss” value (93% RH, 14 h)?
A: 0.24

Q: And the “mass gain or mass loss” value (93% RH, 48 h)?
A: 0.44

Q: And the “mass gain or mass loss” value (93% RH, 96 h)?
A: 0.40

Q: What about the “mass gain or mass loss” value (93% RH, 144 h) of the same compound?
A: 0.43

Q: And the “mass gain or mass loss” value (93% RH, 168 h)?
A: 0.39

Q: What about the “mass gain or mass loss” value (93% RH, 192 h) of the same compound?
A: 0.38

Q: What about the “mass gain or mass loss” value (93% RH, 216 h) of the same compound?
A: 0.43

Q: And the “mass gain or mass loss” value (93% RH, 240 h)?
A: 0.81

Q: What about the “water addition (in words)” value (97% RH) of the same compound?
A: significant water addition issue

Q: What about the “mass gain or mass loss” value (97% RH, 4 h) of the same compound?
A: 1.51

Q: And the “mass gain or mass loss” value (97% RH, 8 h)?
A: 1.06

Q: What about the “mass gain or mass loss” value (97% RH, 14 h) of the same compound?
A: 4.36

Q: And the “mass gain or mass loss” value (97% RH, 48 h)?
A: 7.86

Q: And the “mass gain or mass loss” value (97% RH, 96 h)?
A: 13.77

Q: What about the “mass gain or mass loss” value (97% RH, 144 h) of the same compound?
A: 23.58

Q: What about the “mass gain or mass loss” value (97% RH, 168 h) of the same compound?
A: 23.62

Q: And the “mass gain or mass loss” value (97% RH, 192 h)?
A: 23.06

Q: And the “mass gain or mass loss” value (97% RH, 216 h)?
A: 22.13

Q: And the “mass gain or mass loss” value (97% RH, 240 h)?
A: 19.88

Q: What about the KF initial (before the hygroscopicity study) of the same compound?
A: HYGR[…] (KF initial = 0.9692%)
